Measured values reported in patent US20250025439A1, “DERIVATIVES OF NIFUROXAZIDE FOR USE IN THE TREATMENT OF MITOCHONDRIAL DISORDERS AND NEURODEGENERATIVE DISEASES” (priority 2021, published 2025).

Assays:
Experiment in all cases: Affinity chromatography with NFX-beads and mass spectrometry
Format in all cases: binding
Conditions in all cases: spectral counts, NFX coupled beads vs beads alone, human fibroblast extracts
[1] = molecular target: T1, E3 ubiquitin-protein ligase DTX3L (Homo sapiens, UniProt Q8TDB6)
T1 construct: Protein extracts from human fibroblasts were incubated with magnetic beads; endogenous in cells; host or cells: human fibroblast lysate

[2] = molecular target: T2, Unconventional myosin-IXb (MYO9B) (Homo sapiens, UniProt Q13459)
T2 construct: Protein extracts from human fibroblasts were incubated with magnetic beads; endogenous in cells; host or cells: human fibroblast lysate
T2 sequence (Q13459 whole entry): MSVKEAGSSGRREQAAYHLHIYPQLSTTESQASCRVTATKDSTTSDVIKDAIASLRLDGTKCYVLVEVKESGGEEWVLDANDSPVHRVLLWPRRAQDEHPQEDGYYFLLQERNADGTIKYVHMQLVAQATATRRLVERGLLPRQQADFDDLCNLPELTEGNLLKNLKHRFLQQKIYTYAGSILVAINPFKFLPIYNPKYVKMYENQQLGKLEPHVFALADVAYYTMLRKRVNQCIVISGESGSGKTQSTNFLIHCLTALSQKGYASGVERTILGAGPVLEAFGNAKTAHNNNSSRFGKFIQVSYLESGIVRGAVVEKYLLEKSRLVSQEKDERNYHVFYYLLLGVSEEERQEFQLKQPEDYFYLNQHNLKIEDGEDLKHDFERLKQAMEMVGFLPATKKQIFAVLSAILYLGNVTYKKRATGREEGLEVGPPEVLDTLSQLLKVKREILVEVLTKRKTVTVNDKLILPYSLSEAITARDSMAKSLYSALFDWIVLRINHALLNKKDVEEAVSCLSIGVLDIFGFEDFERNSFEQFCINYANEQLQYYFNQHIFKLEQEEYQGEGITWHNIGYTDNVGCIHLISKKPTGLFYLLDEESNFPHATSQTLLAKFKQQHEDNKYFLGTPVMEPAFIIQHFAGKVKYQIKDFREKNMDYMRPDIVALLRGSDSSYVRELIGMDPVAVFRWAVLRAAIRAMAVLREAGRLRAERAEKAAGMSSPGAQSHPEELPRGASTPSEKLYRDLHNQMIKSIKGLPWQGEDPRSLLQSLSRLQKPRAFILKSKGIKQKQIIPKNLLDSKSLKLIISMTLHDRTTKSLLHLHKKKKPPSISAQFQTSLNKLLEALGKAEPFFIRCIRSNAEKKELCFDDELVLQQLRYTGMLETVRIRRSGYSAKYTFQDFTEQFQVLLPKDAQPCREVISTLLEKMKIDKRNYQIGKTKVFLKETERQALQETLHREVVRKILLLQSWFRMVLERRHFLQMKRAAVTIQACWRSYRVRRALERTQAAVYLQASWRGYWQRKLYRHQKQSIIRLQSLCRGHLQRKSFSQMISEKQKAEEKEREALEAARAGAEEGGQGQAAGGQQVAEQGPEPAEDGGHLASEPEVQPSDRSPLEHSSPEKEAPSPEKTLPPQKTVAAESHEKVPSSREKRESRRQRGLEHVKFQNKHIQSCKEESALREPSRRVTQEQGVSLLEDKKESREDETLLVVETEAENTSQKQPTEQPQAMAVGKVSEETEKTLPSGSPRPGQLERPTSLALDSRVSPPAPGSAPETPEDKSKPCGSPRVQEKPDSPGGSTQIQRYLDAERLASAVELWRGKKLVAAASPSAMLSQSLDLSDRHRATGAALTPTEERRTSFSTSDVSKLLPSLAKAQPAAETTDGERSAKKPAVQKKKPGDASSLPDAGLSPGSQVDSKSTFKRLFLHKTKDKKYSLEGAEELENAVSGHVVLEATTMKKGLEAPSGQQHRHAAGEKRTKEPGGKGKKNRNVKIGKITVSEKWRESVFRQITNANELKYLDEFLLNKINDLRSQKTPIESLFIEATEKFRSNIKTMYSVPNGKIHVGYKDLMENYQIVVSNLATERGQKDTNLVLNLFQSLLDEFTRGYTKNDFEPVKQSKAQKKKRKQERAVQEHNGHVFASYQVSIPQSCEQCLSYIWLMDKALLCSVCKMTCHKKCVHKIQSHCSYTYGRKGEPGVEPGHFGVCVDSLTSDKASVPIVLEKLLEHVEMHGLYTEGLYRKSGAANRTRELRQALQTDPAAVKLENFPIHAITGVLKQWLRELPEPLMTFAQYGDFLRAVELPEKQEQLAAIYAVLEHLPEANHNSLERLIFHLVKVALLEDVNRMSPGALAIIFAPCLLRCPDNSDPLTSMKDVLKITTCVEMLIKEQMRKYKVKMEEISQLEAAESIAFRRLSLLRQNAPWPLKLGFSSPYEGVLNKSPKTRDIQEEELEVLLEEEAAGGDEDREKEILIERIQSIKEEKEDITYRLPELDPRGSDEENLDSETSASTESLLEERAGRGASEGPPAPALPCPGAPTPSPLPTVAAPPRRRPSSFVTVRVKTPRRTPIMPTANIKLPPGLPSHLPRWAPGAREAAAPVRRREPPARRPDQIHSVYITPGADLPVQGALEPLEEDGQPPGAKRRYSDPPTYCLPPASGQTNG

[3] = molecular target: T3, Kinesin-1 heavy chain (KIF5B) (Homo sapiens, UniProt P33176)
T3 construct: Protein extracts from human fibroblasts were incubated with magnetic beads; endogenous in cells; host or cells: human fibroblast lysate
T3 sequence (P33176 1-963): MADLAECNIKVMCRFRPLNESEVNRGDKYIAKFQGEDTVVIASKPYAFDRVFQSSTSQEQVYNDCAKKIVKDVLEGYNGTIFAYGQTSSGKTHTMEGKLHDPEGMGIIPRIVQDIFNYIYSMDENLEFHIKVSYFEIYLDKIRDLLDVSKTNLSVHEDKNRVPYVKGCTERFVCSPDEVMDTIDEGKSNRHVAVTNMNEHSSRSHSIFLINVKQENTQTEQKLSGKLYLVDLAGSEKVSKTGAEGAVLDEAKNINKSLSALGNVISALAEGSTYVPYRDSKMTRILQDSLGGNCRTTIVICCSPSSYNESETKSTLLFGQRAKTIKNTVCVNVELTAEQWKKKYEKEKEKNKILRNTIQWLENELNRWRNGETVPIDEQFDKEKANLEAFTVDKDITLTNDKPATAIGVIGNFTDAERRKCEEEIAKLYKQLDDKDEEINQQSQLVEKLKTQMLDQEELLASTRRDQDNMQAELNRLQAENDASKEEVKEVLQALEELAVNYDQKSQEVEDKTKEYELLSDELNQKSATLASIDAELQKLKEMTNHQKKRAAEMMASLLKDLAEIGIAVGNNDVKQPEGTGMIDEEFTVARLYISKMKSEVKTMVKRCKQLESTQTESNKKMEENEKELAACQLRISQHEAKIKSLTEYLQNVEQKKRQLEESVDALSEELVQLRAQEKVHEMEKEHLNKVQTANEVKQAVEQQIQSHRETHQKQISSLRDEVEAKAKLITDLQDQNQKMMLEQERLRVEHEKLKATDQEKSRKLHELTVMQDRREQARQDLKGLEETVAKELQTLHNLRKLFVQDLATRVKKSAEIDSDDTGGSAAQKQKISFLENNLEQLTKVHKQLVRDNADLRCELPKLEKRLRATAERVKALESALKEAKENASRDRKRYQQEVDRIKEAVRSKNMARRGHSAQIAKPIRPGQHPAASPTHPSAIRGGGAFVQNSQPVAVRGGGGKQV

[4] = molecular target: T4, ARF GTPase-activating protein GIT2 (Homo sapiens, UniProt Q14161)
T4 construct: Protein extracts from human fibroblasts were incubated with magnetic beads; endogenous in cells; host or cells: human fibroblast lysate
T4 sequence (Q14161 1-759): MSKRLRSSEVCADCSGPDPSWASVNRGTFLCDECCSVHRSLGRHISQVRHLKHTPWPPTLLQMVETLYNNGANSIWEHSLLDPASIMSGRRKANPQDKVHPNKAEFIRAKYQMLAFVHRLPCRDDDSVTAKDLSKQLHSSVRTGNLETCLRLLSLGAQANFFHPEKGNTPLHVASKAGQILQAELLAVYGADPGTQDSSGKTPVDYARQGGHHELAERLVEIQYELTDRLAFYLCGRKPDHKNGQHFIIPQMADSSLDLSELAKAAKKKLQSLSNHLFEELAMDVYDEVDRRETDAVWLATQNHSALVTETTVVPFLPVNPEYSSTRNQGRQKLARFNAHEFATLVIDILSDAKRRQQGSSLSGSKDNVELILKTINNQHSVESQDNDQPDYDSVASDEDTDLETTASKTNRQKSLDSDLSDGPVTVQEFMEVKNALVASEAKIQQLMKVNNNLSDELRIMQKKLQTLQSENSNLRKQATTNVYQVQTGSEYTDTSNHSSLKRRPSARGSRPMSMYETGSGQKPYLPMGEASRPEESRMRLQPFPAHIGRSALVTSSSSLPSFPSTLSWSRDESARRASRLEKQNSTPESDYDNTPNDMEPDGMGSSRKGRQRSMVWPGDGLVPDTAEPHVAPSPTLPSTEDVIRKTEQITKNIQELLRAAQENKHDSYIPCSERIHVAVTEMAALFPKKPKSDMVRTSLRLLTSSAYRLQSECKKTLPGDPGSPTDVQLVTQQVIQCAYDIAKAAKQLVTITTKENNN

[5] = molecular target: T5, Myotubularin-related protein 5 (SBF1) (Homo sapiens, UniProt O95248)
T5 construct: Protein extracts from human fibroblasts were incubated with magnetic beads; endogenous in cells; host or cells: human fibroblast lysate
T5 sequence (O95248 whole entry): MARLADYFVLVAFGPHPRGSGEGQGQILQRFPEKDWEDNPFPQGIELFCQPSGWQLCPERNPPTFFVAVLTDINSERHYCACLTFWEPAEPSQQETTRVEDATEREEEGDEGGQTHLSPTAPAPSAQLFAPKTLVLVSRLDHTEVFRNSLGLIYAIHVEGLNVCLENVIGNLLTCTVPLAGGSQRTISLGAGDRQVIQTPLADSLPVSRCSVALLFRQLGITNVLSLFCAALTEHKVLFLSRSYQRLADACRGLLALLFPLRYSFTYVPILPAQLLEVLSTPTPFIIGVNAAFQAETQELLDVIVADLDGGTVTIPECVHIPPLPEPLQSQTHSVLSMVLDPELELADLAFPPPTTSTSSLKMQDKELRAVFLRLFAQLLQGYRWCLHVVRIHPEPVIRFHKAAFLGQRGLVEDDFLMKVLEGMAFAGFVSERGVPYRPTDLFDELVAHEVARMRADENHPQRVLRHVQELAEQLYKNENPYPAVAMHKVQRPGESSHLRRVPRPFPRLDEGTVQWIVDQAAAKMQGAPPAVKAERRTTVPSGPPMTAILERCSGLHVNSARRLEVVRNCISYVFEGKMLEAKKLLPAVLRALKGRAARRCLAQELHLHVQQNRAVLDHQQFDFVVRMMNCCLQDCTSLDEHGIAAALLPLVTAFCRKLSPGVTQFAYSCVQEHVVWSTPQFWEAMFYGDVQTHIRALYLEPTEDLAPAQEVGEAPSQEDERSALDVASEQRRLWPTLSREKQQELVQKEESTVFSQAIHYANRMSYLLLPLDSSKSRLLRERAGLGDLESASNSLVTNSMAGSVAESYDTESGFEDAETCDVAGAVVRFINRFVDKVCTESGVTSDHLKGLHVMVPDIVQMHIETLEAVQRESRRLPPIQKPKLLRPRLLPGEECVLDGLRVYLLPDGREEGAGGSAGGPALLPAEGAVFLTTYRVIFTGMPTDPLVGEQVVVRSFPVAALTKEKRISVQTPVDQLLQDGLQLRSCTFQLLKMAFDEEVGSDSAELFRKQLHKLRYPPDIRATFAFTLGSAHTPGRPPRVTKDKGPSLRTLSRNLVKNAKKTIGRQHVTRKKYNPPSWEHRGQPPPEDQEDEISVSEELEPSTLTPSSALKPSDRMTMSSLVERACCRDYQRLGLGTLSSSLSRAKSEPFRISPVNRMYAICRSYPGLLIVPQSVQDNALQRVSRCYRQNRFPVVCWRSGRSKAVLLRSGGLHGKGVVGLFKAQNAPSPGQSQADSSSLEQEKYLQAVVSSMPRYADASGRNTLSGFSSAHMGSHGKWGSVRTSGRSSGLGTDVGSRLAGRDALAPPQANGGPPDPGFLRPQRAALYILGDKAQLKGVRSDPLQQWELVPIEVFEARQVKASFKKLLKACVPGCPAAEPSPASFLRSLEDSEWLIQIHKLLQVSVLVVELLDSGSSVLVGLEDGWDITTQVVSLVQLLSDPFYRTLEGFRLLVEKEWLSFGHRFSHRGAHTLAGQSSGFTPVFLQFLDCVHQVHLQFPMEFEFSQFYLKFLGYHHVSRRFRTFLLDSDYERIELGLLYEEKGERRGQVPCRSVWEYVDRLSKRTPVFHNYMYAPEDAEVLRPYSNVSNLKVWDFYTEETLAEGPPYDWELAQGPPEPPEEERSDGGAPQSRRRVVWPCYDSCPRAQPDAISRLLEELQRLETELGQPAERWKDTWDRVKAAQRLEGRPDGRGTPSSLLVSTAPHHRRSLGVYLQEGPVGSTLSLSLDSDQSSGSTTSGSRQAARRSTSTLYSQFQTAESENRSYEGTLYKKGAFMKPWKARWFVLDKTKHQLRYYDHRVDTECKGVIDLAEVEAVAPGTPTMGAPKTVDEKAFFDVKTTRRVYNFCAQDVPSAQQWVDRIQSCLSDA

Fold change [1]: 386.67
Fold change [2]: 34.52
Fold change [3]: 121.67
Fold change [4]: 433.33
Fold change [5]: 41.35
Compound: O=C(N/N=C/c1ccc([N+](=O)[O-])o1)c1ccc(O)cc1 [NFX, (E)-4-hydroxy-N′-((5-nitrofuran-2-yl)methylene)benzohydrazide]
